Test results reported in patent US20180305332A1, “Bispiperidinyl Derivatives as Liver X Receptor Beta Agonists, Compositions, and Their Use” (Merck Sharp & Dohme Corp., priority 2015, published 2018).
pEC50: −log10 of the molar value.

Legend:
[1] = molecular target: T1, GST tagged LXRbeta LBD (ligand binding domain) (Homo sapiens, UniProt P55055); test: LanthaScreen TR-FRET Liver X Receptor Coactivator Assay, LXR beta-LBD; assay type: biochemical; settings: relative to reference T0901317; for pEC50: Inflection Point (potency), co-activator recruitment, read-out: LXR beta IP; for Emax: read-out: LXR beta act @ max dose (%)
T1 construct: purchased Invitrogen pv4658.pps
T1 sequence (P55055 222-460 limits assumed): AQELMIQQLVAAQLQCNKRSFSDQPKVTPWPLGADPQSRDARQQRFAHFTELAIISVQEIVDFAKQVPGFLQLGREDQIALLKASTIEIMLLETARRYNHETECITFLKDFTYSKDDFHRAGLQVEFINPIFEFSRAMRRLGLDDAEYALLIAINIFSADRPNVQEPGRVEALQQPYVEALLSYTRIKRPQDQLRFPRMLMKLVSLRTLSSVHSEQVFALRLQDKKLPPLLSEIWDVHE
Method in brief: (§1)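 Cmpd + LBD → add fluorescein coactivator peptide/Tb-anti-GST Ab mix → incubate RT → TR-FRET readout. IP and Emax referenced to T0901317 (dual LXR agonist).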

[2] = molecular target: T2, GST tagged LXRalpha LBD (ligand binding domain) (Homo sapiens, UniProt Q13133); test: LanthaScreen TR-FRET Liver X Receptor Coactivator Assay, LXR alpha-LBD; assay type: biochemical; settings: relative to reference T0901317; for pEC50: read-out: LXR alpha IP; for Emax: read-out: LXR alpha act @ max dose (%)
T2 construct: purchased Invitrogen pv4655
T2 sequence (Q13133 209-447 limits assumed): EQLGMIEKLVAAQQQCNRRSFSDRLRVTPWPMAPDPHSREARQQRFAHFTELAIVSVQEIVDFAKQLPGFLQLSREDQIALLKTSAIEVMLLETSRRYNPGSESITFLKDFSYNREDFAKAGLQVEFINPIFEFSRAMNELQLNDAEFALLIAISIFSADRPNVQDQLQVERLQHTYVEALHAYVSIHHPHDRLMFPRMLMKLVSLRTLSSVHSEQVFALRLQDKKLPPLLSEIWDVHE
Method in brief: as §1

[3] = activity at max dose (efficacy)
[4] = Inflection Point (potency), co-activator recruitment

CN(C)C(=O)c1ccc(N2CCC(C3CCN(C(=O)C4(c5ccccc5)CC4)CC3)CC2)cc1Cl [Example A-39, 2-chloro-N,N-dimethyl-4-{1′-[(1-phenylcyclopropyl)carbonyl]-4,4′-bipiperidin-1-yl}benzamide]
pEC50 [1]: 6.85
Emax [1, 3]: 101%
pEC50 [2, 4]: 5.26
Emax [2, 3]: 32%

CN(C)C(=O)c1ccc(N2CCC(C3CCN(C(=O)C(C)(C)c4cccc(F)c4)CC3)CC2)cc1Cl [Example A-91, 2-chloro-4-{1′-[2-(3-fluorophenyl)-2-methylpropanoyl]-4,4′-bipiperidin-1-yl}-N,N-dimethylbenzamide]
pEC50 [1]: 6.83
Emax [1, 3]: 112%
pEC50 [2, 4]: 5.68
Emax [2, 3]: 42%

CC(C)S(=O)(=O)c1ccc(N2CCC(C3CCN(C(=O)[C@](O)(c4ccccc4)C(F)(F)F)CC3)CC2)cc1Cl [Example D-5, (2R)-3-(1′-{3-chloro-4-[(1-methylethyl)sulfonyl]phenyl}-4,4′-bipiperidin-1-yl)-1,1,1-trifluoro-3-oxo-2-phenylpropan-2-ol]
pEC50 [1]: 6.38
Emax [1, 3]: 86%
pEC50 [2, 4]: 5.82
Emax [2, 3]: 28%

CN(Cc1ccon1)C(=O)c1ccc(N2CCC(C3CCN(C(=O)c4c(F)cccc4F)CC3)CC2)cc1Cl [Example E-16, 2-chloro-4-{1′-[(2,6-difluorophenyl)carbonyl]-4,4′-bipiperidin-1-yl}-N-(isoxazol-3-ylmethyl)-N-methylbenzamide]
pEC50 [1]: 6.86
Emax [1, 3]: 92%
pEC50 [2, 4]: 5.77
Emax [2, 3]: 38%

C=C(C)CC(O)(C(=O)N1CCC(C2CCN(c3ccc(C(=O)N(C)C)c(Cl)c3)CC2)CC1)C(F)(F)F (stereo not shown) [Example A-56, 2-chloro-4-{1′-[2-hydroxy-4-methyl-2-(trifluoromethyl)pent-4-enoyl]-4,4′-bipiperidin-1-yl}-N,N-dimethylbenzamide]
pEC50 [1]: 7.19
Emax [1, 3]: 120%
pEC50 [2, 4]: 5.72
Emax [2, 3]: 68%

COc1ccc(C2(C(=O)N3CCC(C4CCN(c5ccc(C(=O)N(C)C)c(Cl)c5)CC4)CC3)CCCC2)cc1 [Example A-46, 2-chloro-4-(1′-{[1-(4-methoxyphenyl)cyclopentyl]carbonyl}-4,4′-bipiperidin-1-yl)-N,N-dimethylbenzamide]
pEC50 [1]: 6.73
Emax [1, 3]: 34%
LXR alpha IP (nM) [2, 4]: NO IP
Emax [2, 3]: 0%

CN(C)C(=O)c1ccc(N2CCC(C3CCN(C(=O)[C@@](C)(O)c4ccccc4)CC3)CC2)cc1Cl [Example A-53, 2-chloro-4-{1′-[(2S)-2-hydroxy-2-phenylpropanoyl]-4,4′-bipiperidin-1-yl}-N,N-dimethylbenzamide]
pEC50 [1]: 6.59
Emax [1, 3]: 108%
pEC50 [2, 4]: 5.49
Emax [2, 3]: 29%

CC(c1ccon1)N(C)C(=O)c1ccc(N2CCC(C3CCN(C(=O)[C@](O)(c4ccccc4)C(F)(F)F)CC3)CC2)cc1Cl (stereo partly drawn) [Example E-51, 2-chloro-N-(1-isoxazol-3-ylethyl)-N-methyl-4-{1′-[(2R)-3,3,3-trifluoro-2-hydroxy-2-phenylpropanoyl]-4,4′-bipiperidin-1-yl}benzamide]
pEC50 [1]: 6.84
Emax [1, 3]: 62%
pEC50 [2, 4]: 5.77
Emax [2, 3]: 18%

O=C(NC1CN(C(=O)c2ccc(N3CCC(C4CCN(C(=O)[C@](O)(c5ccccc5)C(F)(F)F)CC4)CC3)cc2Cl)C1)c1ccccc1 [Example E-41, N-{1-[(2-chloro-4-{1′-[(2R)-3,3,3-trifluoro-2-hydroxy-2-phenylpropanoyl]-4,4′-bipiperidin-1-yl}phenyl)carbonyl]azetidin-3-yl}benzamide]
pEC50 [1]: 6.93
Emax [1, 3]: 74%
pEC50 [2, 4]: 5.77
Emax [2, 3]: 54%

CC(C)C(O)(C(=O)N1CCC(C2CCN(c3ccc(C(=O)N(C)C)c(Cl)n3)CC2)CC1)C(F)(F)F (stereo in doubt) [Example B-5, 2-chloro-6-{1′-[(2R)-2-hydroxy-3-methyl-2-(trifluoromethyl)butanoyl]-4,4′-bipiperidin-1-yl}-N,N-dimethylpyridine-3-carboxamide]
pEC50 [1]: 7.57
Emax [1, 3]: 115%
pEC50 [2, 4]: 5.96
Emax [2, 3]: 61%

CC(C)(C)OC(=O)N1CCC(C2CCN(c3ccc(C(C)(C)O)c(Cl)c3)CC2)CC1 [Example E-69, tert-butyl 1′-[3-chloro-4-(1-hydroxy-1-methylethyl)phenyl]-4,4′-bipiperidine-1-carboxylate]
pEC50 [1]: 6.49
Emax [1, 3]: 69%
pEC50 [2, 4]: 6.00
Emax [2, 3]: 56%

O=C(c1ccc(N2CCC(C3CCN(C(=O)[C@@](O)(c4ccccc4)C(F)(F)F)CC3)CC2)cc1Cl)N1CCCC1 (single isomer, unassigned) [Example E-19]
pEC50 [1]: 6.55
Emax [1, 3]: 88%
pEC50 [2, 4]: 5.50
Emax [2, 3]: 33%

CN(C)C(=O)c1ccc(N2CCC(C3CCN(C(=O)[C@](O)(c4ccccc4)C(F)(F)F)CC3)CC2)cc1Cl [Example A-13, 2-chloro-N,N-dimethyl-4-{1′-[(2R)-3,3,3-trifluoro-2-hydroxy-2-phenylpropanoyl]-4,4′-bipiperidin-1-yl}benzamide]
pEC50 [1]: 7.28
Emax [1, 3]: 106%
pEC50 [2, 4]: 5.82
Emax [2, 3]: 19%

CN(Cc1ccno1)C(=O)c1ccc(N2CCC(C3CCN(C(=O)[C@](O)(c4ccccc4)C(F)(F)F)CC3)CC2)cc1Cl [Example E-50, 2-chloro-N-(isoxazol-5-ylmethyl)-N-methyl-4-{1′-[(2R)-3,3,3-trifluoro-2-hydroxy-2-phenylpropanoyl]-4,4′-bipiperidin-1-yl}benzamide]
pEC50 [1]: 6.46
Emax [1, 3]: 74%
pEC50 [2, 4]: 5.85
Emax [2, 3]: 31%

CN(C)C(=O)c1ccc(N2CCC(C3CCN(C(=O)C45CC(C4)C5)CC3)CC2)cc1Cl [Example A-15, 4-[1′-(bicyclo[1.1.1]pent-1-ylcarbonyl)-4,4′-bipiperidin-1-yl]-2-chloro-N,N-dimethylbenzamide]
pEC50 [1]: 6.50
Emax [1, 3]: 93%
pEC50 [2, 4]: 5.50
Emax [2, 3]: 31%

COc1cccc(C(O)(C(=O)N2CCC(C3CCN(c4ccc(C(=O)N(C)C)c(Cl)c4)CC3)CC2)C(F)(F)C(F)(F)F)c1 (stereo not shown) [Example A-85, 2-chloro-N,N-dimethyl-4-{1′-[3,3,4,4,4-pentafluoro-2-hydroxy-2-(3-methoxyphenyl)butanoyl]-4,4′-bipiperidin-1-yl}benzamide]
pEC50 [1]: 6.74
LXR beta act @ max dose (%) [1, 3]: 115%
pEC50 [2, 4]: 5.95
LXR alpha act @ max dose (%) [2, 3]: 41%

Cc1ccccc1C1(C(=O)N2CCC(C3CCN(c4ccc(C(=O)N(C)C)c(Cl)c4)CC3)CC2)CCC1 [Example A-75, 2-chloro-N,N-dimethyl-4-(1′-{[1-(2-methylphenyl)cyclobutyl]carbonyl}-4,4′-bipiperidin-1-yl)benzamide]
pEC50 [1]: 7.74
Emax [1, 3]: 118%
pEC50 [2, 4]: 6.35
Emax [2, 3]: 65%

COC(=O)C1CN(C(=O)c2ccc(N3CCC(C4CCN(C(=O)[C@](O)(c5ccccc5)C(F)(F)F)CC4)CC3)cc2Cl)C1 [Example E-32, methyl 1-[(2-chloro-4-{1′-[(2R)-3,3,3-trifluoro-2-hydroxy-2-phenylproanoyl]-4,4′-bipiperidin-1-yl}phenyl)carbonyl]azetidine-3-carboxylate]
pEC50 [1]: 6.84
Emax [1, 3]: 57%
pEC50 [2, 4]: 5.65
Emax [2, 3]: 22%

CN(C)C(=O)c1ccc(N2CCC(C3CCN(C(=O)C(C)(C)c4ccccc4Cl)CC3)CC2)cc1Cl [Example A-83, 2-chloro-4-{1′-[2-(2-chlorophenyl)-2-methylpropanoyl]-4,4′-bipiperidin-1-yl}-N,N-dimethylbenzamide]
pEC50 [1]: 7.82
Emax [1, 3]: 115%
pEC50 [2, 4]: 6.23
Emax [2, 3]: 74%

CNC(=O)c1ccc(N2CCC(C3CCN(C(=O)C(O)(C(C)C)C(F)(F)F)CC3)CC2)cc1Cl (stereo not shown) [Example E-5, 2-chloro-4-{1′-[2-hydroxy-3-methyl-2-(trifluoromethyl)butanoyl]-4,4′-bipiperidin-1-yl}-N-methylbenzamide]
pEC50 [1]: 6.95
Emax [1, 3]: 123%
pEC50 [2, 4]: 5.97
Emax [2, 3]: 56%

CC(C)C(O)(C(=O)N1CCC(C2CCN(c3ccc(C(=O)N(C)C)c(Cl)n3)CC2)CC1)C(F)(F)F (stereo not shown) [Example B-4, 2-chloro-6-{1′-[2-hydroxy-3-methyl-2-(trifluoromethyl)butanoyl]-4,4′-bipiperidin-1-yl}-N,N-dimethylpyridine-3-carboxamide]
pEC50 [1]: 7.59
Emax [1, 3]: 123%
pEC50 [2, 4]: 6.31
Emax [2, 3]: 48%

CN(C)C(=O)c1ccc(N2CCC(C3CCN(C(=O)C(F)(F)c4ccc(F)cc4)CC3)CC2)cc1Cl [Example A-63, 2-chloro-4-{1′-[difluoro(4-fluorophenyl)acetyl]-4,4′-bipiperidin-1-yl}-N,N-dimethylbenzamide]
pEC50 [1]: 6.66
Emax [1, 3]: 114%
pEC50 [2, 4]: 5.54
Emax [2, 3]: 52%
